# BindingDB's records for patent US9790180 (REGENACY PHARMACEUTICALS, LLC, 2017)
# Key:
# [1] = molecular target: Histone deacetylase 3 (Homo sapiens, UniProt O15379)
# [2] = molecular target: Histone deacetylase 2 (Homo sapiens, UniProt Q92769)
# Chain of Histone deacetylase 2 (Q92769 whole entry): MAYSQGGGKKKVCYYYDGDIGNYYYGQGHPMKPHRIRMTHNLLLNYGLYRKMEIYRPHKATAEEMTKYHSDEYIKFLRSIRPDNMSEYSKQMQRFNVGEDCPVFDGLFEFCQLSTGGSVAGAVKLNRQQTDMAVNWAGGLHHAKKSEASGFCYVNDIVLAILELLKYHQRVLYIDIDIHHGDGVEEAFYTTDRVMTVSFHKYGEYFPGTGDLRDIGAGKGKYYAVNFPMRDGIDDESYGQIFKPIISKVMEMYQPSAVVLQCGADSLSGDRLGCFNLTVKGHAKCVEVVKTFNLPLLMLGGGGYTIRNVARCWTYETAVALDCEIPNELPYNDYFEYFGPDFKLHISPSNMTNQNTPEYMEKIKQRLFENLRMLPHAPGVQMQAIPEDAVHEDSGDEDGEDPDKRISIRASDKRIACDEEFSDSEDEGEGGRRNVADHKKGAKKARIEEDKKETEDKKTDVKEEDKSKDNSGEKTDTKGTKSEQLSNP
# Chain of Histone deacetylase 3 (O15379 whole entry): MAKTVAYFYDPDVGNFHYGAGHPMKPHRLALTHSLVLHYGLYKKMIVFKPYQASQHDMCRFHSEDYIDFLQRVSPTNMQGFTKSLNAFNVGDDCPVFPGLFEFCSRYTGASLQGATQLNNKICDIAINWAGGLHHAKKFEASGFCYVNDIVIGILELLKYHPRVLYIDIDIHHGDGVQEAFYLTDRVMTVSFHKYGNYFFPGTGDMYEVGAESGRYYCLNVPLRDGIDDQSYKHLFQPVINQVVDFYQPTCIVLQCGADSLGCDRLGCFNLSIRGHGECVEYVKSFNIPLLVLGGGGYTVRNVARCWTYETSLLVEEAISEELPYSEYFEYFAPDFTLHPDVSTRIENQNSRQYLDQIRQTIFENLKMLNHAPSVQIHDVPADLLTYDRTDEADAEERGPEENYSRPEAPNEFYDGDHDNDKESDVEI
Compound,IC50 [1] [nM],IC50 [2] [nM]
"CN(c1ncc(C(=O)Nc2cc(-c3ccccc3)ccc2N)cn1)C1CCN(C(=O)Cc2c[nH]c3ccccc23)CC1 [US9790180, ID 033]",> 2000,211
"CC1(Nc2ncc(C(=O)Nc3cc(-c4ccccc4)ccc3N)cn2)CCNCC1 [US9790180, ID 041]",252,26
"Nc1ccc(-c2ccccc2)cc1NC(=O)c1cnc(NC2CCN(C(=O)Cc3c[nH]c4ccccc34)CC2)nc1 [US9790180, ID 035]",1400,196
